From US20040219543A1, “Method for specifically detecting, isolating and characterizing cells from body samples by transfecting nucleic acid constructs” (priority 2001, published 2004)

Tests used:
[1] = target: T1, PPARδ (Homo sapiens, UniProt Q03181); experiment: PPARδ-responsive αGFPT204I reporter gene expression in transfected SW480 cells incubated with NSAIDs, flow cytometry; type: cell-based; details: 300 μM, 10 hour incubation of transfected SW480 cells; expression returns virtually to background level
T1 construct: Because of Wnt signal activity, SW480 cells overexpress the transcription factor PPARδ; endogenous in cells; host or cells: SW480 colon carcinoma cells
T1 sequence (Q03181 1-441): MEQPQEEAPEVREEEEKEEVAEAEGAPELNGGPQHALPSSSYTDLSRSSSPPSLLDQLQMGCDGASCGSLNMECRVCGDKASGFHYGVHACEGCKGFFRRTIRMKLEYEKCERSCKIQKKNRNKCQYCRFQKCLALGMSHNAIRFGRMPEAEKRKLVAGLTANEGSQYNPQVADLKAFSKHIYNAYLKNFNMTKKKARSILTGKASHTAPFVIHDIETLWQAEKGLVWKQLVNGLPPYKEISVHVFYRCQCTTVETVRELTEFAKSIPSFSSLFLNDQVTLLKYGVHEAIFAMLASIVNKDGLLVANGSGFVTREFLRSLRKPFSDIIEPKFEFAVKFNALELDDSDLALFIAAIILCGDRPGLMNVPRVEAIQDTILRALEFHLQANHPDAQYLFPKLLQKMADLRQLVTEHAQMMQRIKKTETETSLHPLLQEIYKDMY

[2] = tested on: tumor cells; details: by inhibiting the PPARδ transcription factor; cited from earlier work

inhibition of the observed activation of the FOP-αGFPT204I reporter gene in the presence of functional PPARδ-DNA binding sites [1] | SMILES | growth of tumor cells [2]
significantly inhibits | COc1ccc2c(c1)c(CC(=O)O)c(C)n2C(=O)c1ccc(Cl)cc1 [indomethacin] | –
significantly inhibits | CSc1ccc(/C=C2/C(C)=C(CC(=O)O)c3cc(F)ccc32)cc1 [Sulindac sulphide] | –
– | CC1=C(CC(=O)O)c2cc(F)ccc2/C1=C\c1ccc([S+](C)[O-])cc1 (stereo not shown) [sulindac] | able to inhibit the growth of tumor cells
– | CC(=O)Oc1ccccc1C(=O)O [aspirin] | able to inhibit the growth of tumor cells
